Reference: patent publication EP0066351A1, “Arylethanol amine derivatives, their preparation and use in pharmaceutical compositions” (priority 1981, dated 1982)
Counter-ions that a name gives are not always drawn. Like-named read-outs stand apart in the source and are kept apart here.

Experiments:
Rat hearts = experiment: Cardiac activity: rat hearts perfused by the Langendorff procedure
Method: Rat hearts were perfused by the Langendorff procedure as follows: • Hearts were dissected free within 30 seconds of death and reverse perfused via the aorta and coronary vessels with Krebs-Ringer bicarbonate solution (pH 7.4, 37 °C) gassed with 95% oxygen:5% carbon dioxide at a flow rate between 8-12 cm^3/minute. Responses were observed after injection of drug dissolved in isotonic saline into the perfusion media.
Results are expressed as a percentage of the maximum response due to salbutamol.

Female CFLP mice [1] = experiment: Effect on energy expenditure and food intake of mice; assay type: in vivo; conditions: Mus musculus; for response vs control in vivo at 25.6 mg/kg / response vs control in vivo at 23.8 mg/kg / response vs control in vivo at 21.3 mg/kg / response vs control in vivo at 19.6 mg/kg / response vs control in vivo at 23.6 mg/kg / response vs control in vivo at 20.8 mg/kg / response vs control in vivo at 26.7 mg/kg / response vs control in vivo at 21.2 mg/kg / response vs control in vivo at 18.8 mg/kg / response vs control in vivo at 20.7 mg/kg / response vs control in vivo at 25.5 mg/kg: po, 21 h; for response vs control in vivo at 18.9 mg/kg: dose 18.9 mg/kg po, mice, 21 hours after dosing, percentage of mice dosed with water
Method: Female CFLP mice each weighing approximately 24 g, were given food and water ad lib before and during the experiment. The compounds were dissolved in water by addition of one mole of hydrochloric acid per mole of compound and these solutions were administered orally to each of 12 mice. A further 12 mice were dosed orally with water. The mice were placed in boxes through which air was drawn and the oxygen content of the air leaving the boxes was measured. The energy expenditure of the mice was calculated for 21 hours after dosing from the volume of air leaving the boxes and its oxygen content following the principles described by J B de V Weir, J Physiol (London) 109, 1-9, (1949). The food intake of the mice was measured over this same period of 21 hours. The results are expressed as a percentage of the mean food intake or rate of energy expenditure of the mice dosed with water.

Female CFLP mice [2] = experiment: Hypoglycaemic activity: blood glucose after subcutaneous glucose load in fasted mice; assay type: in vivo; conditions: glucose 1 g/kg s.c. 30 minutes after dosing, area over 2 hours vs water controls
Method: Female CFLP mice, each weighing approximately 25 g, were fasted for 24 hours prior to the study. The compounds under study were administered orally as an aqueous solution to each of 7 mice. 7 mice were given water as a control. 30 minutes later a blood sample (20 µl) was obtained from the tail for the analysis of blood glucose. Immediately after taking this blood sample, glucose (1 g/kg body weight) was administered subcutaneously to each mouse. Blood samples were then obtained from each mouse at 30 minute intervals for 120 minutes.
Compounds that produced a significant (P<0.05) reduction of blood glucose, compared with control mice given water, at any time interval, were considered active. The area under the blood glucose curve over the 2 hour period after the administration of the glucose was calculated for each compound and compared with the value for control animals.

rat ear = experiment: Topical anti-inflammatory activity: croton oil induced inflammation in the rat ear; assay type: in vivo; conditions: dose 1.0 mg/rat ear, topical in 1% croton oil in tetrahydrofuran; ear weight after 6 hours; active = significant (5% level) reduction vs non-drug treated control
Method: The method used is based on that described by G. Tonelli et al (Endocrinology, 77, 625-634, 1965). An inflammation is induced in the rat ear by the application of 50 µl of a 1% solution of croton oil in tetrahydrofuran, test compounds being dissolved in the irritant vehicle. After 6 hours the inflammation is assessed by killing the animals and weighing the ears. Topical anti-inflammatory activity of a compound is generally considered to be shown when a significant (5% level) reduction in ear weight is seen compared to non-drug treated control.

platelets = experiment: Collagen-induced platelet aggregation in human whole blood in vitro; assay type: cell-based; conditions: collagen EC50 in presence of compound divided by control EC50, 3 mins preincubation
Method: Collagen-induced platelet aggregation in human whole blood in vitro.
Collagen added to stirred citrated blood causes platelet aggregation. As the platelets aggregate, the concentration of single platelets falls. […] Inhibitors of aggregation, such as aspirin and dipyridamole, reduce the response to collagen.
Blood drawn from volunteers who denied taking aspirin within the previous seven days was mixed with 0.1 vol 129 mM trisodium citrate, dispensed into 0.5 ml aliquots and kept at 25°. Collagen (Hormon-Chemie, Munich) or 154 mM NaCl (control) was added to each aliquot of blood stirred at 1100 rpm in an aggregometer at 37° after 3 mins preincubation with compound or appropriate solvent. Aggregates were fixed by addition of 0.5 vol 4.5% formaldehyde or 0.05 vol phosphate-buffered glutaraldehyde. Single platelets were counted electronically. Responses, expressed as per cent fall in platelet count, were obtained to a range of collagen concentrations. The concentration producing a 50% maximal effect (EC50) was estimated from log10 concentration-response curves. Dose-ratios were calculated by dividing the EC50 obtained in the presence of compound under test by the control EC50.

[3] = 10 μg added to perfusate, percentage of the maximum response due to salbutamol, perfused rat heart, read-out: Heart Rate
[4] = 10 μg added to perfusate, percentage of the maximum response due to salbutamol, perfused rat heart, read-out: Heart Tension
[5] = read-out: Mean Energy Expenditure (%)
[6] = Rattus norvegicus, read-out: Heart Rate
[7] = Rattus norvegicus, read-out: Heart Tension
[8] = final concentration in whole blood 200 µM
[9] = final concentration in whole blood 300 µM

Compound: COc1cc(CC(C)NCC(O)c2cccc(C(F)(F)F)c2)ccc1OCc1ccccc1 (stereo not shown) [Example 6, N-[2-(4-Benzyloxy-3-methoxyphenyl)-1-methylethyl]-2-hydroxy-2-(3-trifluoromethylphenyl)ethanamine]
- Emax at 0.01 mg (Rat hearts; [3]): 6%
- Emax at 0.01 mg (Rat hearts; [4]): 25%
- response vs control in vivo at 25.6 mg/kg (Female CFLP mice [1]; [5]): 114%
- response vs control in vivo at 25.6 mg/kg (Female CFLP mice [1]; read-out: Mean Food Intake (%)): 75%

Compound: CC(Cc1ccc(OCc2ccccc2)cc1)NCC(O)c1cccc(C(F)(F)F)c1 (stereo not shown) [Example 1, N-[2-(4-Benzyloxyphenyl)-1-methylethyl]-2-hydroxy-2-(3-trifluoromethylphenyl)ethanamine]
- Reduction in area under Blood glucose curve (%) (Female CFLP mice [2]; dose 12.5 μ moles/kg po): 36%
- Emax at 0.01 mg (Rat hearts; [3]): 0%
- Emax at 0.01 mg (Rat hearts; [4]): 7%
- response vs control in vivo at 23.8 mg/kg (Female CFLP mice [1]; [5]): 115%
- response vs control in vivo at 23.8 mg/kg (Female CFLP mice [1]; read-out: Mean Food Intake (%)): 100%

Compound: COc1ccc(CCNCC(O)c2cccc(C(F)(F)F)c2)cc1 (stereo not shown) [Example 13, N-[2-(4-Methoxyphenyl)ethyl]-2-hydroxy-2-(3-trifluoromethylphenyl) ethanamine]
- Reduction in area under Blood glucose curve (%) (Female CFLP mice [2]; dose 5.0 μ moles/kg po): 27%
- response vs control in vivo at 18.9 mg/kg (Female CFLP mice [1]; [5]): 112%
- response vs control in vivo at 18.9 mg/kg (Female CFLP mice [1]; read-out: Mean Food Intake (%)): 104%

Compound: CC(Cc1ccc(OCc2ccccc2)c(Cl)c1)NCC(O)c1cccc(C(F)(F)F)c1 (stereo not shown) [Example 7, N-[2-(4-Benzyloxy-3-chlorophenyl)-1-methylethyl]-2-hydroxy-2-(3-trifluoromethylphenyl)ethanamine]
- Reduction in area under Blood glucose curve (%) (Female CFLP mice [2]; dose 12.5 μ moles/kg po): 28%
- Emax at 0.01 mg (Rat hearts; [3]): 0%
- Emax at 0.01 mg (Rat hearts; [4]): 0%

Compound: COc1ccc(CC(C)NCC(O)c2cccc(C(F)(F)F)c2)cc1OC (stereo not shown) [Example 3, N-[2-(3,4-Dimethoxyphenyl)-1-methylethyl]-2-hydroxy-2-(3-trifluoromethylphenyl)ethanamine]
- Reduction in area under Blood glucose curve (%) (Female CFLP mice [2]; dose 12.5 μ moles/kg po): 43%
- Activity (rat ear): Active
- Emax at 0.01 mg (Rat hearts; [3]): 14%
- Emax at 0.01 mg (Rat hearts; [4]): 33%
- response vs control in vivo at 21.3 mg/kg (Female CFLP mice [1]; [5]): 109%
- response vs control in vivo at 21.3 mg/kg (Female CFLP mice [1]; read-out: Mean Food Intake (%)): 100%

Compound: COc1ccc(CC(C)NCC(O)c2cccc(C(F)(F)F)c2)cc1 (stereo not shown) [Example 5, N-[2-(4-Methoxyphenyl)-1-methylethyl]-2-hydroxy-2-(3-trifluoromethylphenyl) ethanamine]
- Reduction in area under Blood glucose curve (%) (Female CFLP mice [2]; dose 1.0 μ moles/kg po): 27%
- Emax at 0.01 mg (Rat hearts; [6]): 0%
- Emax at 0.01 mg (Rat hearts; [7]): 8%
- response vs control in vivo at 19.6 mg/kg (Female CFLP mice [1]; [5]): 119%
- response vs control in vivo at 19.6 mg/kg (Female CFLP mice [1]; read-out: Mean Food Intake (%)): 88%

Compound: CCCCCOc1ccc(CC(C)NCC(O)c2cccc(C(F)(F)F)c2)cc1 (stereo not shown) [Example 11, N-[2-(4-^nPentyloxyphenyl)-1-methylethyl]-2-hydroxy-2-(3-trifluoromethylphenyl) ethanamine]
- Reduction in area under Blood glucose curve (%) (Female CFLP mice [2]; dose 2.5 μ moles/kg po): 47%
- response vs control in vivo at 23.6 mg/kg (Female CFLP mice [1]; [5]): 118%
- response vs control in vivo at 23.6 mg/kg (Female CFLP mice [1]; read-out: Mean Food Intake (%)): 106%

Compound: COc1ccc(CCC(C)(C)NCC(O)c2cccc(C(F)(F)F)c2)cc1 (stereo not shown) [Example 14, N-[3-(4-Methoxyphenyl)-1,1-dimethylpropyl]-2-hydroxy-2-(3-trifluoromethylphenyl) ethanamine]
- Reduction in area under Blood glucose curve (%) (Female CFLP mice [2]; dose 100 μ moles/kg po): 34%

Compound: CC(Cc1ccc(O)c(Cl)c1)NCC(O)c1cccc(C(F)(F)F)c1 (stereo not shown) [Example 8, N-[2-(3-Chloro-4-hydroxyphenyl)-1-methylethyl]-2-hydroxy-2-(3-trifluoromethylphenyl)ethanamine]
- Reduction in area under Blood glucose curve (%) (Female CFLP mice [2]; dose 2.5 μ moles/kg po): 11%
- Emax at 0.01 mg (Rat hearts; [6]): 23%
- Emax at 0.01 mg (Rat hearts; [7]): 8%
- response vs control in vivo at 20.8 mg/kg (Female CFLP mice [1]; [5]): 118%
- response vs control in vivo at 20.8 mg/kg (Female CFLP mice [1]; read-out: Mean Food Intake (%)): 88%

Compound: CC(=O)Oc1ccccc1C(=O)O [Aspirin, reference compound]
- Dose-ratio (platelets; [8]): 2.4 ± 0.3(3)

Compound: CCCCCCCCCCOc1ccc(CC(C)NCC(O)c2cccc(C(F)(F)F)c2)cc1 (stereo not shown) [Example 10, N-[2-(4-^nDecyloxyphenyl)-1-methylethyl)-2-hydroxy-2-(3-trifluoromethylphenyl) ethanamine]
- Reduction in area under Blood glucose curve (%) (Female CFLP mice [2]; dose 5.0 μ moles/kg po): 48%
- response vs control in vivo at 26.7 mg/kg (Female CFLP mice [1]; [5]): 118%
- response vs control in vivo at 26.7 mg/kg (Female CFLP mice [1]; read-out: Mean Food Intake (%)): 89%

Compound: CC(Cc1ccc(OC(C)C)cc1)NCC(O)c1cccc(C(F)(F)F)c1 (stereo not shown) [Example 12, N-(2-(4-Isopropoxyphenyl)-1-methylethyl]-2-hydroxy-2-(3-trifluoromethylphenyl) ethanamine]
- Reduction in area under Blood glucose curve (%) (Female CFLP mice [2]; dose 2.5 μ moles/kg po): 52%
- response vs control in vivo at 21.2 mg/kg (Female CFLP mice [1]; [5]): 122%
- response vs control in vivo at 21.2 mg/kg (Female CFLP mice [1]; read-out: Mean Food Intake (%)): 94%

Compound: CC(Cc1ccc(O)cc1)NCC(O)c1cccc(C(F)(F)F)c1 (stereo not shown) [Example 2, N-[2-(4-Hydroxyphenyl)-1-methylethyl]-2-hydroxy-2-(3-trifluoromethylphenyl)ethanamine]
- Reduction in area under Blood glucose curve (%) (Female CFLP mice [2]; dose 12.5 μ moles/kg po): 59%
- Activity (rat ear): Active
- Dose-ratio (platelets; [9]): 2.2
- Emax at 0.01 mg (Rat hearts; [6]): 73%
- Emax at 0.01 mg (Rat hearts; [7]): 64%
- response vs control in vivo at 18.8 mg/kg (Female CFLP mice [1]; [5]): 126%
- response vs control in vivo at 18.8 mg/kg (Female CFLP mice [1]; read-out: Mean Food Intake (%)): 90%

Compound: COc1ccc(CC(C)NCC(O)c2cccc(C(F)(F)F)c2)cc1F (stereo not shown) [Example 4, N-[2-(3-Fluoro-4-methoxyphenyl)-1-methylethyl]-2-hydroxy-2 (3-trifluoromethylphenyl)ethanamine]
- Reduction in area under Blood glucose curve (%) (Female CFLP mice [2]; dose 1.0 μ moles/kg po): 28%
- Dose-ratio (platelets; [9]): 2.3
- Emax at 0.01 mg (Rat hearts; [6]): 0%
- Emax at 0.01 mg (Rat hearts; [7]): 5%
- response vs control in vivo at 20.7 mg/kg (Female CFLP mice [1]; [5]): 113%
- response vs control in vivo at 20.7 mg/kg (Female CFLP mice [1]; read-out: Mean Food Intake (%)): 86%

Compound: COc1ccc(C[C@@H](C)NC[C@H](O)c2cccc(C(F)(F)F)c2)cc1F (racemic) [Example 9, N-[2-(3-Fluoro-4-methoxyphenyl)-1-methylethyl]-2-hydroxy-2-(3-trifluoromethylphenyl)ethanamine hydrobromide-(RR,SS) diastereoisomer]
- Reduction in area under Blood glucose curve (%) (Female CFLP mice [2]; dose 2.5 μ moles/kg po): 18%
- Emax at 0.01 mg (Rat hearts; [6]): 16%
- Emax at 0.01 mg (Rat hearts; [7]): 4%
- response vs control in vivo at 25.5 mg/kg (Female CFLP mice [1]; [5]): 115%
- response vs control in vivo at 25.5 mg/kg (Female CFLP mice [1]; read-out: Mean Food Intake (%)): 78%

Compound: OCCN(CCO)c1nc(N2CCCCC2)c2nc(N(CCO)CCO)nc(N3CCCCC3)c2n1 [Dipyridamole, reference compound]
- Dose-ratio (platelets; [8]): 3.7 ± 1.1(4)
